Reference: ChEMBL document CHEMBL1201862, “PubChem BioAssay data set” (2004)
Active and inactive are the calls of the source.

Columns and labels:
[1] = target: Voltage-gated inwardly rectifying potassium channel KCNH2 (Homo sapiens, UniProt Q12809); test: hERG protection from proarrhythmic block, potency, dose response, cell-based, thallium flux (AID 2121); format: ADME
[2] = target: 5-hydroxytryptamine receptor 1A (Homo sapiens, UniProt P08908); format: functional
[3] = cells
[4] = cytotoxicity toward NIH3T3 fibroblasts, dose response, counter-screen, cell-based, ATP luminescence, mouse fibroblasts (AID 2010); format: functional;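 further: cells exposed to compound for about 90 hours before reading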
[5] = inhibitors of intracellular T. cruzi replication, confirmation, NIH3T3 host cells, beta-gal luminescence (AID 2044); format: functional, cell-based;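 further: intracellular parasites grown in NIH/3T3 mouse fibroblasts as host cells; luminescent beta-galactosidase reporter signal from transgenic T. cruzi replicating inside host cells; inhibitors lower the luminescence signal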
[6] = Luminescent dose response cell-based high throughput screening assay for inhibitors of the Janus kinase 2 mutant JAK2V617F. [Related pubchem assays: 1446 (Primary screen.), 1521 (Confirmation assay.), 1486 (Counter screen.)]; format: functional
[7] = system: BJ; test: cells; format: functional, cell-based; conditions: Homo sapiens
[8] = cytotoxicity toward DRD oncogenic fibroblasts, dose response, cell-based, non-viral oncogenic, luminescence (AID 1934); format: functional; conditions: Homo sapiens
[9] = system: BJ; test: cytotoxicity toward BJ-TERT-LT-ST fibroblasts, dose response, cell-based, RAS-independent, luminescence (AID 1935); format: functional; conditions: Homo sapiens;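 further: BJ fibroblasts immortalized with TERT plus LT and ST oncogenes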
[10] = system: BJ; test: cytotoxicity toward BJ-TERT fibroblasts, dose response, cell-based, RAS-independent, luminescence (AID 1933); format: functional; conditions: Homo sapiens
[11] = system: Vero; test: cytotoxicity of synthesized analogs in Vero cells, SAR follow-up, cytotoxicity control for West Nile virus antiviral project, cell-based, set II (AID 2402); format: functional; conditions: Chlorocebus sabaeus
[12] = system: Vero; test: cytotoxicity of synthesized analogs in Vero 76, SAR follow-up, cytotoxicity control for West Nile virus antiviral project, Vero 76 cells (AID 2414); format: functional; conditions: Chlorocebus sabaeus
[13] = target: Diphosphomevalonate decarboxylase (Streptococcus pneumoniae serotype 2 (strain D39 / NCTC 7466), UniProt Q9FD53); test: S. pneumoniae DPM-DC inhibition retest, confirmation, biochemical, cuvette format, coupled NADH fluorescence (AID 1028); format: functional
[14] = target: Nonstructural protein 1 (Influenza A virus, UniProt Q194T2); format: functional, Influenza A virus (A/California/07/2009(H1N1))
[15] = system: Vero; test: host cell cytotoxicity of antiviral hits, dose response, cytotoxicity control for West Nile virus antiviral project, secondary assay (AID 1650); format: functional; conditions: Chlorocebus sabaeus
[16] = system: Vero; test: cells; format: functional, cell-based; conditions: Chlorocebus sabaeus
[17] = target: T1, Type-1 angiotensin II receptor (Homo sapiens, UniProt P30556); test: AT1 receptor antagonists, dose response, selectivity assay for APJ receptor antagonist project, cell-based, uHTS hits (AID 463214); format: functional;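 further: antagonist potency against angiotensin II stimulated AT1 response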
T1 sequence (P30556 whole entry): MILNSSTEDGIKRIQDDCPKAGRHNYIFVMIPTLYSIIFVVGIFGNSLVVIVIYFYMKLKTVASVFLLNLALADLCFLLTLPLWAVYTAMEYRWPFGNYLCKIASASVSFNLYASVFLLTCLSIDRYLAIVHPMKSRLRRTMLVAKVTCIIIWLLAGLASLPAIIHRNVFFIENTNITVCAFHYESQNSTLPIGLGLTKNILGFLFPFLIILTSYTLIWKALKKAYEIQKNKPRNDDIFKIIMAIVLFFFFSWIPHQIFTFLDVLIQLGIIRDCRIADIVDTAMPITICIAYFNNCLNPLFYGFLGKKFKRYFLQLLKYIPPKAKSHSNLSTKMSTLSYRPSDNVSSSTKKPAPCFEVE

[18] = system: INS1; test: beta cell apoptosis inhibitors, cytokine rescue, dose response, luminescence, retest (AID 449756); format: functional, cell-based; conditions: Rattus norvegicus;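 further: cell death triggered by IL-1 beta plus TNF-alpha plus IFN-gamma mixture; protective hits raise ATP signal compared with cytokine alone wells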
[19] = system: Vero; test: cells; format: functional; conditions: Chlorocebus sabaeus
[20] = system: BJ; test: cytotoxicity toward Ras-transformed BJeLR fibroblasts, dose response, cell-based, alamar blue fluorescence, cherrypicked samples (AID 2631); format: functional; conditions: Homo sapiens;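 further: confirmatory dose-response assay in RAS-dependent BJ fibroblasts engineered with TERT, LT and ST, with cytotoxicity read by fluorescence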
[21] = Luminescence-based dose response cell-based high throughput screening assay for cytotoxic compounds using the IEC-6 intestinal epithelial cell line. [Related pubchem assays: 1858 (Summary AID.), 1825 (Counterscreen.), 1907 (Confirmation screen.)]; format: functional
[22] = target: Beta-galactosidase (Escherichia coli, UniProt Q8VNN2); test: PubChem AID 485352; format: functional
[23] = target: T2, Estrogen receptor (Homo sapiens, UniProt P03372);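 further: potency for inhibiting coactivator peptide recruitment to the receptor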
T2 sequence (P03372 whole entry): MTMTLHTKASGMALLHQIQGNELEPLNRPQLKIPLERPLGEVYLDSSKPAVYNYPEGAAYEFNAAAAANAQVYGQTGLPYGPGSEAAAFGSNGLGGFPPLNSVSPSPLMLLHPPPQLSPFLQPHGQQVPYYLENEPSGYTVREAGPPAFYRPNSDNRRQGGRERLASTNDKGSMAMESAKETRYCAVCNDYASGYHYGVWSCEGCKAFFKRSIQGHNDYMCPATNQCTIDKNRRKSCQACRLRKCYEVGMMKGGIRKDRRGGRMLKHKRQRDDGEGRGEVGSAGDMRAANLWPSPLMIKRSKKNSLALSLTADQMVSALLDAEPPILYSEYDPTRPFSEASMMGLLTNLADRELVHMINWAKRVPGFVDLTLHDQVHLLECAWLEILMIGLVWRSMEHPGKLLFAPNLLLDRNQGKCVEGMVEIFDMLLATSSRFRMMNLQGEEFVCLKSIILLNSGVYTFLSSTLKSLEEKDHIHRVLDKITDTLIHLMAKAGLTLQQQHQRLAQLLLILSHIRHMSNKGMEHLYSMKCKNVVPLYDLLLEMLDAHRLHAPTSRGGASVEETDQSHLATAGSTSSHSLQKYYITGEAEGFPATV

[24] = target: Estrogen receptor beta (Homo sapiens, UniProt Q92731);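 further: recombinant ER-beta bound to coactivator SRC1 peptide in presence of estradiol agonist; inhibitors block coactivator peptide binding and lower the FRET signal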
Sequence of Estrogen receptor beta (Q92731 whole entry): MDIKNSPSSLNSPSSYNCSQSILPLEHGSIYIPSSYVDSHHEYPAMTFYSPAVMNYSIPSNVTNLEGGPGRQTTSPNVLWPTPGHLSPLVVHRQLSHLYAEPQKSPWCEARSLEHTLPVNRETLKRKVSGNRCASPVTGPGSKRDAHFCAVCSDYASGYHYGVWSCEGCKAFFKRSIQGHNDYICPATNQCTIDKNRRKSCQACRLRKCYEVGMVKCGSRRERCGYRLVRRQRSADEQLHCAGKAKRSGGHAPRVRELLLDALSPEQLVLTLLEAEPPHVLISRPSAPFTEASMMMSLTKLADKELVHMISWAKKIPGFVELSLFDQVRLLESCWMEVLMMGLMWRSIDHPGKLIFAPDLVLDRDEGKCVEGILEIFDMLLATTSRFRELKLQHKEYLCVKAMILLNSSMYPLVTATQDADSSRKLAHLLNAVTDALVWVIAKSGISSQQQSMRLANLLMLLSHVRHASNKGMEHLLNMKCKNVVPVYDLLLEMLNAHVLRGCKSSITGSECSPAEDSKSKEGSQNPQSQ

Sequence of Nonstructural protein 1 (Q194T2 whole entry): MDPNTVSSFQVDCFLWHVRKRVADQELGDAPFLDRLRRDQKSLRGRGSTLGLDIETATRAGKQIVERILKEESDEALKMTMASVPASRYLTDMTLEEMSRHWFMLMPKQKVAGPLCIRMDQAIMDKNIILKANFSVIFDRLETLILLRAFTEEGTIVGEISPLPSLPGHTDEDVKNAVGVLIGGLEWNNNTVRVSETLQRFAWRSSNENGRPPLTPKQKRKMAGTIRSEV
Sequence of Diphosphomevalonate decarboxylase (Q9FD53 whole entry): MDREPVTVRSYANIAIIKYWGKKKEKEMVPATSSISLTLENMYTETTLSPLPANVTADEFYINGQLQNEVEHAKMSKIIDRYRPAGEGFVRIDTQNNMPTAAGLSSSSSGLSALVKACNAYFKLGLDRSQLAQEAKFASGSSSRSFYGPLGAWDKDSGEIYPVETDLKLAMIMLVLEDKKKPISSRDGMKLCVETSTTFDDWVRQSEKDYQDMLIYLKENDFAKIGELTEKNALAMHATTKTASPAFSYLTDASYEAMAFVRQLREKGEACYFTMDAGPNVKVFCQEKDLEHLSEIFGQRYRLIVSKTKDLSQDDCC
Sequence of Beta-galactosidase (Q8VNN2 whole entry): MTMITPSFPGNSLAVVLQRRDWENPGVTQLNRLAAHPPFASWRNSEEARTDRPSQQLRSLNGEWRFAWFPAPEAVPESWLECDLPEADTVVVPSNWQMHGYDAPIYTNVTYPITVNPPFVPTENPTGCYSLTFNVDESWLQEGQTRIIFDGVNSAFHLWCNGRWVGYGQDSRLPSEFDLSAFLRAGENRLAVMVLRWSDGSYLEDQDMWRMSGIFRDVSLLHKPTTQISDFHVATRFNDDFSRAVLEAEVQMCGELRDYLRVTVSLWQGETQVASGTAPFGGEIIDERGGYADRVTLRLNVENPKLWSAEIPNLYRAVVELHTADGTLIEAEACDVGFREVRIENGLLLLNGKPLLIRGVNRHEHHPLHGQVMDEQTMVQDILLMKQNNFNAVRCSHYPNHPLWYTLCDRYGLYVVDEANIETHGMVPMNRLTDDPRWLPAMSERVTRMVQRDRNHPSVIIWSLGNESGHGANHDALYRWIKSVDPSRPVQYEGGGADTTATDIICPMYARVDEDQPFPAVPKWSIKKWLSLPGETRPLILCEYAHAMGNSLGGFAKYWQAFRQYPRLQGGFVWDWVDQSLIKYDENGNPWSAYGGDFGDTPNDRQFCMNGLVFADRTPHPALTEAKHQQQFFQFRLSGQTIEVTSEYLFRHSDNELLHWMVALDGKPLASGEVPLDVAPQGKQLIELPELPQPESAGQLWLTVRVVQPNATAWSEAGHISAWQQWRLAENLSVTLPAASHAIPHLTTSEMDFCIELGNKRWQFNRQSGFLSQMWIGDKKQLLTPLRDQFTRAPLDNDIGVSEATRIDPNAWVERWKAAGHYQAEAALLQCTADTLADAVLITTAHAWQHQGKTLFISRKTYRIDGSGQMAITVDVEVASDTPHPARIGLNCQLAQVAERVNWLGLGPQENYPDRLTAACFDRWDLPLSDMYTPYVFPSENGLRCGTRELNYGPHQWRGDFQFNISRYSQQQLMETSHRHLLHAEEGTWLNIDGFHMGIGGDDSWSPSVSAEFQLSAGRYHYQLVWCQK
Sequence of 5-hydroxytryptamine receptor 1A (P08908 whole entry): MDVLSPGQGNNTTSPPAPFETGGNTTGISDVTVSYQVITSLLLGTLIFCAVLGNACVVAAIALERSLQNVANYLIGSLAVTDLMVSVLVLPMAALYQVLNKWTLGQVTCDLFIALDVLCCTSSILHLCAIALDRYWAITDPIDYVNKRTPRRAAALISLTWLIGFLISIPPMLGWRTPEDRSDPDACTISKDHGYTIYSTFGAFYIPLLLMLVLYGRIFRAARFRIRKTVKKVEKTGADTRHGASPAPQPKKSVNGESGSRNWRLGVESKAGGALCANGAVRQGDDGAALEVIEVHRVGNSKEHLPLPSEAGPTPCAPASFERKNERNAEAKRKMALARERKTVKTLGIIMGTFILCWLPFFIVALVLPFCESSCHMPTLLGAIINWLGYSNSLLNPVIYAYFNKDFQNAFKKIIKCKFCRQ
Sequence of Voltage-gated inwardly rectifying potassium channel KCNH2 (Q12809 whole entry): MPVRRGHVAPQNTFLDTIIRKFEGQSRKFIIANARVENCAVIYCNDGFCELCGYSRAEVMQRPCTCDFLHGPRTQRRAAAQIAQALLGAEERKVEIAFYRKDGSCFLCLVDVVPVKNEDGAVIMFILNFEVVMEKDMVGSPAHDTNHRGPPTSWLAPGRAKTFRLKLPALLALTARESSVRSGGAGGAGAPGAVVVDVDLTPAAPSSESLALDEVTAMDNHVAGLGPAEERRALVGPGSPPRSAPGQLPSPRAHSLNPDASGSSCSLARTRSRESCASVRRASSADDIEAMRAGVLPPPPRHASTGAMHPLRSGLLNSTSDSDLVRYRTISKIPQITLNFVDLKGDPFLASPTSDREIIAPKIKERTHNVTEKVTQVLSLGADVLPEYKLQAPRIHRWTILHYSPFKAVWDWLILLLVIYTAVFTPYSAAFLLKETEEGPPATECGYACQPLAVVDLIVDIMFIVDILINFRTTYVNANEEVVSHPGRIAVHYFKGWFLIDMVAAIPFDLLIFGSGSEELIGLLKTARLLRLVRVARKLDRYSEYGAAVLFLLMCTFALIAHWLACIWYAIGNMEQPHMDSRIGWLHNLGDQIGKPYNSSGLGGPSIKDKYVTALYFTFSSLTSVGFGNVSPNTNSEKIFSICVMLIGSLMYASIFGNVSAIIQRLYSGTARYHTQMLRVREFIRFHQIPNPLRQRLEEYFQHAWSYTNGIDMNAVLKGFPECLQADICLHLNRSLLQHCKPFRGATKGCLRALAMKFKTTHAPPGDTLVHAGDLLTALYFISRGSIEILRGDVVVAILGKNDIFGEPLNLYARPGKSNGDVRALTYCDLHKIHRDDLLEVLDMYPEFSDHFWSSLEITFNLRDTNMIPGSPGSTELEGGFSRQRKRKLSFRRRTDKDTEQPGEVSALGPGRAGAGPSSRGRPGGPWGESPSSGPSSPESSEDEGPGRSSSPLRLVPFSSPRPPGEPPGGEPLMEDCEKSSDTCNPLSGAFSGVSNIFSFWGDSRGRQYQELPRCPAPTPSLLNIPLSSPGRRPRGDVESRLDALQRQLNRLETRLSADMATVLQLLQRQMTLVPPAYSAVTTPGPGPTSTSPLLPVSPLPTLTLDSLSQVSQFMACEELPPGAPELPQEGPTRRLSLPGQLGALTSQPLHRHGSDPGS

Question: Which EC50 [1] does the source give for `COc1ccc(OC)c(NC(=S)NC(=O)c2ccc(Br)o2)c1` here?
Answer: 0.01 µM (active)

Question: With `CC(CCc1ccccc1)NC(=O)CSc1nc(N)cc(N)n1` (stereo not drawn) as the molecule, how does the EC50 [2] read?
Answer: > 50 µM (not active)

Question: What does the source list for `CC(NS(=O)(=O)c1ccc(CCC(=O)N2CCN(C)CC2)cc1)c1ccccc1` (stereo not drawn)?
Answer: EC50 [3]: 0.349 µM (active); EC50 [4]: > 60 µM (not active); EC50 [5]: < 0.1 µM (active)

Question: With `Cc1nn(Cc2ccc(Cl)cc2Cl)c(C)c1NC(=O)CCl` as the molecule, how does the IC50 [6] read?
Answer: 2.44 µM (active)

Question: And the EC50 [7]?
Answer: 21.2 µM (active)

Question: And the EC50 [8]?
Answer: 12.1 µM (active)

Question: What about the EC50 [9] of the same molecule?
Answer: > 150 µM (inconclusive)

Question: What about the EC50 [10] of the same molecule?
Answer: 8.35 µM (active)

Question: Which CC50 [11] does the source give for `O=C(CSc1nc2cccc(I)c2c(=O)n1-c1ccccc1)Nc1ccc2c(c1)CCC2` here?
Answer: > 200 µM (active)

Question: What about the CC50 [12] of the same molecule?
Answer: > 133 µM (active)

Question: For `O=C(c1cccc(-n2sc3ccccc3c2=O)c1)N1CCCCC1`, which IC50 [13] is on record?
Answer: 13.6 µM (active)

Question: Which IC50 [14] does the source give for `C/C(=N\NC(=O)c1ccc(F)cc1)c1ccccn1` here?
Answer: 3 µM (active)

Question: And the CC50 [15]?
Answer: 2.28 µM (active)

Question: And the IC50 [16]?
Answer: > 25 µM (active)

Question: And the IC50 [17]?
Answer: 1.96 µM (active)

Question: What about the AC50 [18] of the same molecule?
Answer: 0.523 µM (active)

Question: What about the CC50 [19] of the same molecule?
Answer: 2.98 µM (active)

Question: And the EC50 [20]?
Answer: 0.475 µM (active)

Question: And the EC50 [7]?
Answer: 1.98 µM (active)

Question: What about the EC50 [8] of the same molecule?
Answer: 5.06 µM (active)

Question: And the EC50 [9]?
Answer: 3.53 µM (active)

Question: And the IC50 [21]?
Answer: 0.54 µM (active)

Question: What about the EC50 [22] of the same molecule?
Answer: > 40 µM (inactive)

Question: And the EC50 [10]?
Answer: 0.844 µM (inconclusive)

Question: For `CC(=N)/C(C#N)=C(/O)CSc1nnc(Cc2ccccc2F)n1N`, which IC50 [23] is on record?
Answer: > 50 µM (not active)

Question: What about the IC50 [24] of the same molecule?
Answer: 13.6 µM (active)
